# In patent US6358885B1, “Substituted phenylheterocyclic herbicides” (Mississippi State University, priority 1992, dated 2002):
# What was measured:
# [1] = system: barley; assay: Test B preemergence/postemergence greenhouse plant response rating 0 to 10; type: in vivo, Hordeum vulgare; conditions: 0 to 10 scale
# Method in brief: (§1)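 Test chemicals were sprayed onto freshly planted seed and, concurrently, onto young plants between the one and four leaf stage. After a twelve- to sixteen-day greenhouse period, each species was visually compared with untreated controls.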
# [2] = system: bedstraw; assay: as above; type: in vivo, Galium aparine; conditions: 0 to 10 scale
# Method in brief: as §1
# [3] = system: chickweed; assay: as above; type: in vivo, Stellaria media; conditions: 0 to 10 scale
# Method in brief: as §1
# [4] = system: cocklebur; assay: as above; type: in vivo, Xanthium pensylvanicum; conditions: 0 to 10 scale
# Method in brief: as §1
# [5] = system: morningglory; assay: as above; type: in vivo, Ipomoea hederacea; conditions: 0 to 10 scale
# Method in brief: as §1
# [6] = system: sorghum; assay: as above; type: in vivo, Sorghum bicolor; conditions: 0 to 10 scale
# Method in brief: as §1
# [7] = system: soybean; assay: as above; type: in vivo, Glycine max; conditions: 0 to 10 scale
# Method in brief: as §1
# [8] = system: sugar beet; assay: as above; type: in vivo, Beta vulgaris; conditions: 0 to 10 scale
# Method in brief: as §1
# [9] = system: velvetleaf; assay: as above; type: in vivo, Abutilon theophrasti; conditions: 0 to 10 scale
# Method in brief: as §1
# [10] = system: wild buckwheat; assay: as above; type: in vivo, Polygonum convolvulus; conditions: 0 to 10 scale
# Method in brief: as §1
# [11] = system: barley; assay: Test C preemergence/postemergence greenhouse plant response rating 0 to 100; type: in vivo, Hordeum vulgare; conditions: POSTEMERGENCE; for Plant response rating Barley Igri: 0 to 100 scale
# Source text: (§2) The compounds evaluated in this test were formulated in a non-phytoxic solvent and applied to the soil surface before plant seedlings emerged (preemergence application), to water that covered the soil surface (flood application), and to plants that were in the one-to-four leaf stage (postemergence application). A sandy loam soil was used for the preemergence and postemergence tests, while a silt loam soil was used in the flood test. Water depth was approximately 2.5 cm for the flood test and was maintained at this level for the duration of the test. Plant species in the preemergence and postemergence tests consisted of barley (Hordeum vulgare), bedstraw (Galium aparine), blackgrass (Alopecurus myosuroides), chickweed (Stellaria media), corn (Zea mays), cotton (Gossypium hirsutum), crabgrass (Digitaria sanguinalis), downy brome (Bromus tectorum), giant foxtail (Setaria faberii), lambsquarters (Chenopodium album), morningglory (Ipomoea hederacea), pigweed ([…]), rape (Brassica napus), ryegrass (Lolium multiflorum), sorghum (Sorghum bicolor), soybean (Glycine max), speedwell (Veronica persica), sugar beet (Beta vulgaris), velvetleaf (Abutilon theophrasti), wheat (Triticum aestivum), wild buckwheat (Polygonum convolvulus), and wild oat (Avena fatua). All plant species were planted one day before application of the compound for the preemergence portion-of this test. Plantings of these species were adjusted to produce plants of appropriate size for the post-emergence portion of the test. […] All plant species were grown using normal greenhouse practices. Visual evaluations of injury expressed on treated plants, when compared to untreated controls, were recorded approximately fourteen to twenty one days after application of the test compound. […] A dash (-) response means no test result.
# [12] = system: blackgrass; assay: as above; type: in vivo, Alopecurus myosuroides; conditions: POSTEMERGENCE; for Plant response rating, Blackgrass: 0 to 100 scale
# Source text: as §2
# [13] = system: chickweed; assay: as above; type: in vivo, Stellaria media; conditions: POSTEMERGENCE; for Plant response rating, Chickweed: 0 to 100 scale
# Source text: as §2
# [14] = system: pigweed; assay: as above; type: in vivo, Amaranthusretroflexus; conditions: POSTEMERGENCE; for Plant response rating Pigweed: 0 to 100 scale
# Source text: as §2
# [15] = system: rape; assay: as above; type: in vivo, Brassica napus; conditions: POSTEMERGENCE; for Plant response rating, Rape: 0 to 100 scale
# Source text: as §2
# [16] = system: ryegrass; assay: as above; type: in vivo, Lolium multiflorum; conditions: POSTEMERGENCE; for Plant response rating Ryegrass: 0 to 100 scale
# Source text: as §2
# [17] = system: soybean; assay: as above; type: in vivo, Glycine max; conditions: POSTEMERGENCE; for Plant response rating, Soybean: 0 to 100 scale
# Source text: as §2
# [18] = system: umbrella sedge; assay: Test C flood test plant response rating 0 to 100; type: in vivo, Cyperus difformis; conditions: for Plant response rating (0 to 100), Umbrella sedge: under POSTEMERGENCE head (flood test species); for Plant response rating Umbrella sedge: flood test species listed under POSTEMERGENCE, 0 to 100 scale
# Source text: as §2
smiles,measurement,setting,value
C=CCN1C(=O)COc2cc(F)c(-c3nn4c(c3Br)CCCC4)cc21 [Compound 41],"Plant response rating, Barley","[1]; POSTEMERGENCE, Rate 50 g/ha",5
same,"Plant response rating, Barley","[1]; POSTEMERGENCE, Rate 200 g/ha",5
same,"Plant response rating, Barley","[1]; PREEMERGENCE, Rate 50 g/ha",1
same,"Plant response rating, Barley","[1]; Rate 200 g/ha, PREEMERGENCE",1
same,"Plant response rating, Bedstraw","[2]; POSTEMERGENCE, Rate 50 g/ha",10
same,"Plant response rating, Bedstraw","[2]; POSTEMERGENCE, Rate 200 g/ha",10
same,"Plant response rating, Bedstraw","[2]; PREEMERGENCE, Rate 50 g/ha",2
same,"Plant response rating, Bedstraw","[2]; Rate 200 g/ha, PREEMERGENCE",10
same,"Plant response rating, Chickweed","[3]; POSTEMERGENCE, Rate 50 g/ha",10
same,"Plant response rating, Chickweed","[3]; POSTEMERGENCE, Rate 200 g/ha",10
same,"Plant response rating, Chickweed","[3]; PREEMERGENCE, Rate 50 g/ha",10
same,"Plant response rating, Chickweed","[3]; Rate 200 g/ha, PREEMERGENCE",10
same,"Plant response rating, Cocklebur","[4]; POSTEMERGENCE, Rate 50 g/ha",10
same,"Plant response rating, Cocklebur","[4]; POSTEMERGENCE, Rate 200 g/ha",10
same,"Plant response rating, Cocklebur","[4]; PREEMERGENCE, Rate 50 g/ha",2
same,"Plant response rating, Cocklebur","[4]; Rate 200 g/ha, PREEMERGENCE",5
same,"Plant response rating, Morningglory","[5]; POSTEMERGENCE, Rate 50 g/ha",9
same,"Plant response rating, Morningglory","[5]; PREEMERGENCE, Rate 50 g/ha",0
same,"Plant response rating, Morningglory","[5]; Rate 200 g/ha, POSTEMERGENCE",10
same,"Plant response rating, Morningglory","[5]; Rate 200 g/ha, PREEMERGENCE",7
same,"Plant response rating, Sorghum","[6]; POSTEMERGENCE, Rate 50 g/ha",5
same,"Plant response rating, Sorghum","[6]; PREEMERGENCE, Rate 50 g/ha",0
same,"Plant response rating, Sorghum","[6]; Rate 200 g/ha, POSTEMERGENCE",6
same,"Plant response rating, Sorghum","[6]; Rate 200 g/ha, PREEMERGENCE",1
same,"Plant response rating, Soybean","[7]; POSTEMERGENCE, Rate 50 g/ha",9
same,"Plant response rating, Soybean","[7]; PREEMERGENCE, Rate 50 g/ha",0
same,"Plant response rating, Soybean","[7]; Rate 200 g/ha, POSTEMERGENCE",10
same,"Plant response rating, Soybean","[7]; Rate 200 g/ha, PREEMERGENCE",0
same,"Plant response rating, Sugar beet","[8]; POSTEMERGENCE, Rate 50 g/ha",10
same,"Plant response rating, Sugar beet","[8]; PREEMERGENCE, Rate 50 g/ha",10
same,"Plant response rating, Sugar beet","[8]; Rate 200 g/ha, POSTEMERGENCE",10
same,"Plant response rating, Sugar beet","[8]; Rate 200 g/ha, PREEMERGENCE",10
same,"Plant response rating, Velvetleaf","[9]; POSTEMERGENCE, Rate 50 g/ha",10
same,"Plant response rating, Velvetleaf","[9]; PREEMERGENCE, Rate 50 g/ha",2
same,"Plant response rating, Velvetleaf","[9]; Rate 200 g/ha, POSTEMERGENCE",10
same,"Plant response rating, Velvetleaf","[9]; Rate 200 g/ha, PREEMERGENCE",10
same,"Plant response rating, Wild buckwheat","[10]; POSTEMERGENCE, Rate 50 g/ha",10
same,"Plant response rating, Wild buckwheat","[10]; PREEMERGENCE, Rate 50 g/ha",10
same,"Plant response rating, Wild buckwheat","[10]; Rate 200 g/ha, POSTEMERGENCE",10
same,"Plant response rating, Wild buckwheat","[10]; Rate 200 g/ha, PREEMERGENCE",10
same,Plant response rating Barley Igri,[11]; 62 g/ha,50
same,Plant response rating Barley Igri,[11]; 125 g/ha,60
same,"Plant response rating (0 to 100), Barley Igri",[11]; Rate 16 g/ha,30
same,"Plant response rating (0 to 100), Barley Igri",[11]; Rate 31 g/ha,40
same,"Plant response rating, Blackgrass",[12]; 62 g/ha,50
same,"Plant response rating, Blackgrass",[12]; 125 g/ha,60
same,"Plant response rating (0 to 100), Blackgrass",[12]; Rate 16 g/ha,40
same,"Plant response rating (0 to 100), Blackgrass",[12]; Rate 31 g/ha,40
same,"Plant response rating, Chickweed",[13]; 62 g/ha,100
same,"Plant response rating, Chickweed",[13]; 125 g/ha,100
same,"Plant response rating (0 to 100), Chickweed",[13]; Rate 16 g/ha,90
same,"Plant response rating (0 to 100), Chickweed",[13]; Rate 31 g/ha,90
same,Plant response rating Pigweed,[14]; 62 g/ha,100
same,Plant response rating Pigweed,[14]; 125 g/ha,100
same,"Plant response rating (0 to 100), Pigweed",[14]; Rate 16 g/ha,90
same,"Plant response rating (0 to 100), Pigweed",[14]; Rate 31 g/ha,100
same,"Plant response rating, Rape",[15]; 62 g/ha,100
same,"Plant response rating, Rape",[15]; 125 g/ha,100
same,"Plant response rating (0 to 100), Rape",[15]; Rate 16 g/ha,95
same,"Plant response rating (0 to 100), Rape",[15]; Rate 31 g/ha,100
same,Plant response rating Ryegrass,[16]; 62 g/ha,30
same,Plant response rating Ryegrass,[16]; 125 g/ha,40
same,"Plant response rating (0 to 100), Ryegrass",[16]; Rate 16 g/ha,10
same,"Plant response rating (0 to 100), Ryegrass",[16]; Rate 31 g/ha,20
same,"Plant response rating, Soybean",[17]; 62 g/ha,70
same,"Plant response rating, Soybean",[17]; 125 g/ha,100
same,"Plant response rating (0 to 100), Soybean",[17]; Rate 16 g/ha,60
same,"Plant response rating (0 to 100), Soybean",[17]; Rate 31 g/ha,70
same,"Plant response rating (0 to 100), Umbrella sedge",[18]; Rate 16 g/ha,60
same,"Plant response rating (0 to 100), Umbrella sedge",[18]; Rate 31 g/ha,60
same,Plant response rating Umbrella sedge,[18]; 62 g/ha,80
same,Plant response rating Umbrella sedge,[18]; 125 g/ha,90
